Experiment [1] concerns Tobacco callus/P. lunatus callus. As to the kind of experiment: trans-Zeatin equivalents based on Tobacco callus/P. lunatus callus bioassay. The class given is cell-based. The note with it: for nM in tZ E[…] KELPAK / nM in tZ EQUIVALENTS IN KELPAK: contribution of the cytokinin in Kelpak. From the text: It can be seen from Table 4 that there is significant variation in activity between the cytokinins. The minimum concentration required for an effect and the optimum concentration in the tobacco callus assay are much better for iP and tZ than the other cytokinins, with BA still quite good.
The activity of pT in this assay has not been reported.
Nevertheless, the response of plant growth to different cytokinins can vary depending on the specific circumstances.

Experiment [2] concerns tobacco callus. The note with it: tobacco callus bioassay, cited from earlier work; for MINIMUM CONCENTRATION / OPTIMUM CONCENTRATION: Matsubara 1990, Letham et al. 1983; for minimum concentrations required for activity compared to tZ and BA: fold worse.
The subject of experiment [3] is Phaseolus lunatus callus. The note with it: cited from earlier work; for EC50: Phaseolus lunatus callus, Mok et al. 2005, read-out: concentration at which one half of the maximal growth is achieved; for MINIMUM CONCENTRATION / OPTIMUM CONCENTRATION: P. lunatus callus bioassay, Matsbuara 1990.
The test system of experiment [4] is Phaseolus vulgaris callus. The note with it: Phaseolus vulgaris callus assay; Matsbuara 1990; cited from earlier work.
The subject of experiment [5] is Pea test. The note with it: used to make it equivalent to IAA; Pilet 1971; cited from earlier work.
Where [6] appears, read: contribution of the cytokinin in Composition 1.
The mark [7] stands for this setting: contribution of the cytokinin in Composition 2.

Where only a bound is given, the exact number is not on record here.

In the case of “trans-zeatin-O-glucoside [trans-zeatin-O-glucoside (tZOG)]”, the “nM in tZ E[…] KELPAK” value in experiment [1] worked out at 3.6 nM. Also, the “MINIMUM CONCENTRATION” value in experiment [2] is 0.001 µM.

For “trans-zeatin-9-glucoside [trans-zeatin-9-glucoside (tZ9G)]”, in experiment [2], the “MINIMUM CONCENTRATION” value is greater than 50 µM.

Take trans-zeatin riboside-O-glucoside: in experiment [1], the “nM in tZ E[…] KELPAK” value is reported as 0.0005 nM. The “MINIMUM CONCENTRATION” value in experiment [2] is 0.003 µM.

Consider `Oc1ccc(CNc2ncnc3nc[nH]c23)cc1` [para-topolin (pT), para-topolin], for which, in experiment [1] (setting [6]), the “nM in tZ EQUIVALENTS IN ROOM TEMPERATURE EXTRACT (COMPOSITION 1)” value worked out at 0.0001 nM. Also, the “nM in tZ EQUIVALENTS IN 90° C. EXTRACT (COMPOSITION 2)” value in experiment [1] (setting [7]) came to 0.09 nM. The EC50 in experiment [3] is roughly 30000 nM.

In the case of `CC(CCNc1ncnc2nc[nH]c12)CO[C@@H]1O[C@H](CO)[C@@H](O)[C@H](O)[C@H]1O` (stereo partly drawn) [Dihydrozeatin-O-glucoside (DHZOG), Dihydrozeatin-O-glucoside], the “MINIMUM CONCENTRATION” value in experiment [2] is 0.001 µM.

As to “cis-zeatin riboside [cis-zeatin riboside (cZR)]”, in experiment [2], the “MINIMUM CONCENTRATION” value is 0.03 µM and the “OPTIMUM CONCENTRATION” value is 0.3 µM.

With `Oc1ccccc1CNc1ncnc2nc[nH]c12` [ortho-topolin (oT), ortho-topolin], the “nM in tZ EQUIVALENTS IN KELPAK” value in experiment [1] was 0.002 nM. The “minimum concentrations required for activity compared to tZ and BA” value in experiment [2] (Holub et al. 1998) was 100 fold. Further, the EC50 in experiment [3] was roughly 1000 nM.

Consider `C/C(=C/CNc1ncnc2nc[nH]c12)CO` [cis-zeatin (cZ), cis-zeatin], for which the “nM in tZ E[…] ROOM T[…] (COMPOSITION 1)” value in experiment [1] (setting [6]) turned out to be 0.03 nM. The “nM in tZ E[…] 90° C. EXTRACT (COMPOSITION 2)” value in experiment [1] (setting [7]) is listed as 0.03 nM. In addition, in experiment [1], the “nM in tZ E[…] KELPAK” value came to 0.00008 nM. The “MINIMUM CONCENTRATION” value in experiment [2] is 0.03 µM; in experiment [3], 0.03 µM; in experiment [4] it was 0.01 µM. Also, the “OPTIMUM CONCENTRATION” value is 0.5 µM in experiment [2], 3 µM in experiment [3] and 3 µM in experiment [4]. Also, in experiment [3], the EC50 was roughly 300 nM.

Regarding `CC(CO)CCNc1ncnc2c1ncn2[C@@H]1O[C@H](CO)[C@@H](O)[C@H]1O` (stereo partly drawn) [dihydrozeatin riboside (DHZR), dihydrozeatin riboside], in experiment [1], the “nM in tZ EQUIVALENTS IN KELPAK” value stood at 0.00001 nM. Further, in experiment [2], the “MINIMUM CONCENTRATION” value was 0.01 µM and the “OPTIMUM CONCENTRATION” value is 4 µM.

`OC[C@H]1O[C@@H](n2cnc3c(NCc4ccccc4)ncnc32)[C@H](O)[C@@H]1O` [N6-benzyladenosine (BAR), N6-benzyladenosine]: the “nM in tZ EQUIVALENTS IN KELPAK” value in experiment [1] turned out to be 0.0001 nM. Besides, in experiment [2], the “MINIMUM CONCENTRATION” value was 0.02 µM and the “OPTIMUM CONCENTRATION” value was 1 µM.

In the case of `c1ccc(CNc2ncnc3nc[nH]c23)cc1` [N6-benzyladenine (BA), N6-benzyladenine], in experiment [1] (setting [7]), the “nM in tZ EQUIVALENTS IN 90° C. EXTRACT (COMPOSITION 2)” value turned out to be 0.0002 nM. In addition, in experiment [1], the “nM in tZ EQUIVALENTS IN KELPAK” value is reported as 0.01 nM. The “MINIMUM CONCENTRATION” value in experiment [2] was 0.0008 µM; in experiment [3], 0.01 µM; in experiment [4], 0.001 µM. Besides, the results for the “OPTIMUM CONCENTRATION” value in experiment [2] and in experiment [3] were 0.07 µM and 3 µM, respectively. In experiment [3], the EC50 was roughly 40 nM.

For `OC[C@H]1O[C@@H](n2cnc3c(NCc4ccccc4O)ncnc32)[C@H](O)[C@@H]1O` [oTR, ortho-topolin riboside], the “minimum concentrations required for activity compared to tZ and BA” value in experiment [2] (Holub et al. 1998) is 100 fold.

Take `C/C(=C\CNc1ncnc2c1ncn2[C@@H]1O[C@H](CO)[C@@H](O)[C@H]1O)CO` (relative stereo) [trans-zeatin riboside (tZR), trans-zeatin riboside]: the “MINIMUM CONCENTRATION” value in experiment [2] is 0.003 µM; in experiment [3] it was 0.003 µM; in experiment [4], 0.03 µM. Further, the “OPTIMUM CONCENTRATION” value was 0.3 µM in experiment [2], 0.1 µM in experiment [3] and 3 µM in experiment [4].

In the case of `CC(CO)CCNc1ncnc2nc[nH]c12` (stereo not drawn) [dihydrozeatin (DHZ), dihydrozeatin], in experiment [2], the “MINIMUM CONCENTRATION” value is 0.01 µM and the “OPTIMUM CONCENTRATION” value is 0.4 µM.

As to `CC(CCNc1ncnc2c1ncn2C1OC(CO)C(O)C1O)COC1OC(CO)C(O)C(O)C1O` (stereo not drawn) [dihydrozeatin riboside-O-glucoside], in experiment [1], the “nM in tZ EQUIVALENTS IN KELPAK” value turned out to be 0.00003 nM. In addition, the “MINIMUM CONCENTRATION” value in experiment [2] is 0.002 µM.

On to `Oc1cccc(CNc2ncnc3nc[nH]c23)c1` [mT, meta-topolin], for which, in experiment [2] (Holub et al. 1998), the “optimum concentration compared to tZ” value was “similar”; the “minimum concentrations required for activity compared to tZ and BA” value was “similar”. Besides, the EC50 in experiment [3] is roughly 50 nM.

Consider `C/C(=C\CNc1ncnc2nc[nH]c12)CO` [trans-zeatin (tZ), trans-zeatin], for which the “nM in tZ E[…] KELPAK” value in experiment [1] is on record as 0.29 nM. Moreover, in experiment [2], the “MINIMUM CONCENTRATION” value was 0.0001 µM and the “OPTIMUM CONCENTRATION” value is 0.004 to 0.05 µM. In addition, in experiment [3], the MINIMUM CONCENTRATION is 0.001 µM, the OPTIMUM CONCENTRATION is 0.3 µM and the EC50 is roughly 20 nM. Further, in experiment [4], the MINIMUM CONCENTRATION was 0.0301 µM and the OPTIMUM CONCENTRATION is 3 µM.

For the molecule `c1coc(CNc2ncnc3[nH]cnc23)c1` [kinetin (K), kinetin], in experiment [2], the “MINIMUM CONCENTRATION” value is 0.001 µM and the “OPTIMUM CONCENTRATION” value is 0.1 µM.

As for `COC(=O)C(=O)c1c[nH]c2ccccc12` [IGAMe, indole-3-glyoxylic acid methyl ester], the “activity relative to IAA” value in experiment [5] was 1/28.

The record behind these values is patent US11751573B2, “Seaweed composition” (priority 2017, dated 2023).
